Laboratory results published in US20230090094A1, “HEMP EXTRACT FOR TREATMENT OF PAIN, CANCER AND EPILEPSY IN ANIMALS” (ElleVet Sciences, priority 2019, published 2023).
Values joined by “and” are separate entries in the source; they are usually repeats but may differ in a detail not shown here. Identical values can stand only once. Marks after values point to notes of the source that are not given here.

Tests used:
[1] = Single-dose oral pharmacokinetics of CBD oil in beagles; type: in vivo, dogs; conditions: industrial hemp
Protocol: The dogs were fed two hours after dosing. […] Attitude, behavior, proprioception, and gait were subjectively evaluated at each time point during free running/walking and navigation around standard traffic cones (weaving). […] Blood samples were obtained via jugular venipuncture and transferred to a coagulation tube for 20 minutes. Samples were centrifuged (VWR, Clinical Centrifuge) at 3,600×g for 10 minutes; serum was removed and stored at −80° C. until analysis using liquid chromatography-mass spectrometry (LC-MS) at Colorado State University Core Mass Spectrometry facility.
CBD was extracted from canine serum using a combination of protein precipitation and liquid-liquid extraction using n-hexane, with minor modifications for microflow ultra-high pressure liquid chromatography (UHPLC). Briefly, 0.05 ml of canine serum was subjected to protein precipitation in the presence of ice-cold acetonitrile (80% final concentration), spiked with deuterated CBD as the internal standard (0.06 mg/ml, CDB-d3 Cerilliant, Round Rock, Tex., USA). 0.2 ml of water was added to each sample prior to the addition of 1.0 ml of hexane to enhance liquid-liquid phase separation. Hexane extract was removed and concentrated to dryness under laboratory nitrogen. Prior to LC-MS analysis, samples were resuspended in 0.06 mL of 100% acetonitrile. A standard curve using the CBD analytical standard was prepared in canine serum non-exposed to CBD and extracted as above.
From the UHPLC-QQQ-MS data, peak areas were extracted for CBD detected in biological samples and normalized to the peak area of the internal standard CBD-d3, in each sample using Skyline as well as an in-house R Script (www.r-project.org). […] Pharmacokinetic variables were estimated by means of non-compartmental analysis, utilizing a pharmacokinetic software package (PK Solution, version 2.0, Montrose, Colo., USA).

[2] = Feline serum cannabidiol quantification and pharmacokinetics (LC-MS/MS); type: in vivo, cats; conditions: for Cannabidiol in serum: individual cats, replicates A/B, ppb = ng/mL, LOD 1.9, LOQ 6.2
Protocol: On the first day of dosing, blood was collected for a PK analysis from 6 of the 8 cats. The most cooperative cats were selected for the PK analysis. […] Samples were placed into a red top clotting tube with no serum separator. […] The harvested serum was placed in cyrovials stored at −70° C. Each tube was labeled with the cat id, date of collection and collection time point. Samples were shipped overnight on dry ice to the Proteomics & Metabolomics Facility at Colorado State University.
Aliquots of feline serum were delivered to the facility on dry ice and stored at −80° C. upon receipt. […] of cold (−20C.) 100% Acetonitrile (spiked with 60 ng/mL of d3-CBD) was added to each sample and vortexed at room temperature for 5 minutes. 200 μL of water was added and vortexed for an additional 5 minutes. 1 ml of 100% hexane was then added to each sample and vortexed for a final 5 minutes. […] The upper hexane layer was transferred to new-labeled glass vials (˜900 uL per sample), carefully avoiding the middle and lower layers.
An 8 point standard curve of CBD was generated in matrix background using a blank serum. Concentrations ranged from 0 ng/mL 1000 ng/mL (3.2X dilution series). 50 uL of each spiked serum sample was extracted as above.
LC-MS/MS was performed on a Waters Acquity M-Class UPLC coupled to a Waters Xevo TQ-S triple quadrupole mass spectrometer. […] Flow rate was 3.0 μL/min and injection volume was 2.0 μL. Samples were held at 6° C. in the autosampler, and the column was operated at 70° C. The MS was operated in selected reaction monitoring (SRM) mode, where a parent ion is selected by the first quadrupole, fragmented in the collision cell, then a fragment ion selected for by the third quadrupole. Product ions, collision energies, and cone voltages were optimized for each analyte by direct injection of individual synthetic standards. Inter-channel delay was set to 3 ms. The MS was operated in positive ionization mode with the capillary voltage set to 3.6 kV. […] Desolvation gas flow was […], cone gas flow was 150 L/hr, and collision gas flow was 0.2 mL/min. Nebulizer pressure (nitrogen) was set to 7 Bar. Argon was used as the collision gas.
Each target analyte was visually inspected for retention time and peak area integration. Peak areas were extracted for target compounds detected in biological samples and normalized to the peak area of the appropriate internal standard in each sample using in-house R Script (TQS-tools). CBD concentrations were calculated in nanograms per milliliter of extract (0.06 mL) and then back calculated to nanograms per mL of serum (0.05 mL of serum).
LOD are calculated based on the standard deviation of the response (Sy) of the 0 point calibration standard (i.e. 0 ng/mL CBD as an estimate on noise) and the slope of the calibration curve (S) at levels approximating the LOD according to the formula: LOD=3*(Sy/S). LOQ=10*(Sy/S).

In the case of C=C(C)[C@@H]1CCC(C)=C[C@H]1c1c(O)cc(CCCCC)cc1O [cannabidiol], the Average retention time ([1]; dosing at 2 mg/kg) is reported as 6 h, the Peak concentration ([1]; dosing at 2 mg/kg, average 20 mg total dose) is reported as “approximately 100 ug/kg” and the Total absorption ([1]; oral dosing at 2 mg/kg) is reported as “less than 20%”. For the same molecule, the Cannabidiol in serum ([2]; 60 min after CBD oil 2 mg/kg oral) was 24.44 ppb and 26.32 ppb and 44.14 ppb and 45.40 ppb and 28.10 ppb and 31.02 ppb and 378.59 ppb and 535.08 ppb and 32.85 ppb and 34.26 ppb, the Cannabidiol in serum ([2]; 4 hr after CBD oil 2 mg/kg oral) was 1.69** ppb and 1.82** ppb and 1.53** ppb and 51.48 ppb and 68.31 ppb and the Cannabidiol in serum ([2]; 8 hr after CBD oil 2 mg/kg oral) was 65.42 ppb and 79.30 ppb and 1.82** ppb and 2.22* ppb and 44.23 ppb and 46.05 ppb and 365.18 ppb and 376.28 ppb and 71.64 ppb and 79.59 ppb. The Cannabidiol in serum ([2]; 24 hr after CBD oil 2 mg/kg oral) was 42.76 ppb and 44.88 ppb and 141.92 ppb and 147.74 ppb and 10.28 ppb and 10.31 ppb and 13.95 ppb and 17.17 ppb and 0.18** ppb and 0.36** ppb and 33.12 ppb and 35.88 ppb and the AUC(0-t) ([2]; serum, po, 2 mg/kg) was 154 ng·h/mL.
